In PubChem BioAssay (NCI) one finds TGI data, which are given here for eight compounds.

Structures are written as SMILES.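 Grown in 96-well plates, cells were treated for 48 hours with each compound at five concentrations. Insufficient inhibition: endpoint recorded as highest concentration tested. TGI marks complete inhibition of growth.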

Some test systems named below: HCT-15 colon; NCI-H226 lung; SF-268 CNS; TK-10 renal; UACC-257 melanoma; OVCAR-5 ovarian; OVCAR-4 ovarian; IGROV1 ovarian; CAKI-1 renal; SW-620 colon; SK-MEL-5 melanoma; NCI-H522 lung; LOX IMVI melanoma; SK-MEL-28 melanoma; COLO 205 colon; MDA-MB-435; EKVX NSCLC; T-47D breast; A498 renal.
Experiment in all cases: growth of human tumour cells (NCI), 48 h

On to `O=c1cc(-c2ccccc2)c2ccccc2[nH]1`, for which the TGI in the assay on HCT-15 colon is more than 100 µM; in the assay with NCI-H226 lung it was 99.8 µM; in the assay on SF-268 CNS, more than 100 µM; in the assay on TK-10 renal, more than 100 µM; in the assay on UACC-257 melanoma it was more than 100 µM; in the assay with OVCAR-5 ovarian, more than 100 µM. For the same compound, the TGI is more than 100 µM in the assay on OVCAR-4 ovarian; more than 100 µM in the assay with IGROV1 ovarian; 90.2 µM in the assay on CAKI-1 renal; more than 100 µM with SW-620 colon; 93.2 µM with SK-MEL-5 melanoma; more than 100 µM in the assay on NCI-H522 lung. For the same compound, the TGI in the assay on LOX IMVI melanoma, in the assay with SK-MEL-28 melanoma and with COLO 205 colon was more than 100 µM each time.
Turning to `COC(=O)/C=C\COCC1C2CCC(=O)C21` (stereo not drawn), the TGI in the assay with HCT-15 colon, in the assay on NCI-H226 lung, in the assay with SF-268 CNS, with MDA-MB-435, with TK-10 renal and in the assay with UACC-257 melanoma was more than 25 µM each time. The TGI with OVCAR-5 ovarian is more than 25 µM; with OVCAR-4 ovarian, more than 25 µM; with IGROV1 ovarian, more than 25 µM; with CAKI-1 renal, 1.29 µM; with SW-620 colon, more than 25 µM; with EKVX NSCLC, more than 25 µM. The TGI was more than 25 µM in the assay with SK-MEL-5 melanoma; 7.83 µM in the assay with NCI-H522 lung; more than 25 µM with LOX IMVI melanoma; more than 25 µM with SK-MEL-28 melanoma; more than 25 µM in the assay with COLO 205 colon.
As to `CC(=O)N1C(OC(C)C)CC(C)N1c1ccccc1` (stereo not drawn), the TGI in the assay on HCT-15 colon, in the assay with NCI-H226 lung, in the assay with SF-268 CNS, in the assay on MDA-MB-435, in the assay on TK-10 renal and with UACC-257 melanoma was more than 10 µM throughout. In addition, the TGI with OVCAR-5 ovarian, in the assay with OVCAR-4 ovarian, with IGROV1 ovarian, in the assay on CAKI-1 renal, with SW-620 colon and with EKVX NSCLC was more than 10 µM each time. Further, the TGI with SK-MEL-5 melanoma, in the assay on T-47D breast, in the assay on LOX IMVI melanoma, in the assay on SK-MEL-28 melanoma and in the assay with COLO 205 colon was more than 10 µM throughout.
In the case of `CN1CN(c2ccccc2)C2(CCN(Cc3csc4ccccc34)CC2)C1=O`, the TGI in the assay on HCT-15 colon was more than 100 µM; in the assay on NCI-H226 lung, more than 100 µM; in the assay on SF-268 CNS it was more than 100 µM; with MDA-MB-435, 28.7 µM; with TK-10 renal, 41.2 µM; in the assay on UACC-257 melanoma, 31.9 µM. For the same compound, the TGI in the assay on OVCAR-5 ovarian was 25.1 µM; with IGROV1 ovarian, 44.7 µM; with CAKI-1 renal it was more than 100 µM; with SW-620 colon, more than 100 µM; in the assay on EKVX NSCLC it was 41.8 µM; with SK-MEL-5 melanoma, 22.4 µM. Moreover, the TGI amounted to 71 µM with T-47D breast; 35.7 µM in the assay on NCI-H522 lung; 25.2 µM in the assay on LOX IMVI melanoma; 68.7 µM in the assay with SK-MEL-28 melanoma; 30.2 µM in the assay on COLO 205 colon.
On to `CCN(C(=O)N[C@@H](Cc1ccccc1)C(=O)N[C@@H](CC(C)C)C(=O)OC)c1ccccc1`, for which the TGI in the assay on HCT-15 colon is 34.5 µM; in the assay with NCI-H226 lung, 47.6 µM; in the assay on MDA-MB-435 it was more than 100 µM; in the assay on TK-10 renal it was more than 100 µM; with UACC-257 melanoma, 54.3 µM; with OVCAR-5 ovarian, 66.6 µM. In addition, the TGI with OVCAR-4 ovarian was more than 100 µM; in the assay on IGROV1 ovarian, 42.2 µM; in the assay on CAKI-1 renal, 84.7 µM; in the assay on SW-620 colon, 75 µM; in the assay on EKVX NSCLC, 58.8 µM; in the assay with T-47D breast, more than 100 µM. The TGI in the assay with NCI-H522 lung was 22.6 µM; in the assay with LOX IMVI melanoma, 30.1 µM; in the assay with SK-MEL-28 melanoma, 32.6 µM; in the assay on COLO 205 colon it was 32.2 µM.
In the case of `Fc1ccc(Oc2nc3ccc(C(F)(F)F)cc3nc2-c2ccccc2)cc1`, the TGI with HCT-15 colon, in the assay on SF-268 CNS, in the assay with MDA-MB-435, with TK-10 renal, in the assay on UACC-257 melanoma and in the assay with OVCAR-5 ovarian was more than 100 µM throughout. The TGI is more than 100 µM in the assay with OVCAR-4 ovarian; more than 100 µM in the assay on IGROV1 ovarian; 70.8 µM in the assay on CAKI-1 renal; more than 10 µM in the assay with SW-620 colon; more than 100 µM in the assay with EKVX NSCLC; more than 100 µM in the assay on SK-MEL-5 melanoma. The TGI in the assay with T-47D breast, in the assay with NCI-H522 lung, with LOX IMVI melanoma and in the assay with COLO 205 colon was more than 100 µM in each case.
Regarding `CN1C2=C(CC3=C1CC(C)(C)CC3=O)C(=O)CC(C)(C)C2`, the TGI in the assay with HCT-15 colon, in the assay on NCI-H226 lung, with SF-268 CNS, with TK-10 renal, with OVCAR-5 ovarian and in the assay on OVCAR-4 ovarian was more than 100 µM throughout. Moreover, the TGI in the assay on IGROV1 ovarian, in the assay with CAKI-1 renal, in the assay with SW-620 colon, in the assay with EKVX NSCLC, in the assay on SK-MEL-5 melanoma and in the assay on LOX IMVI melanoma was more than 100 µM throughout. Further, the TGI with A498 renal and with SK-MEL-28 melanoma was more than 100 µM throughout.
As for `CCCc1cc(=O)oc2c3c(c4c(c12)OC(C)(C)CC4)O[C@@H](C)[C@H](C)[C@H]3O`, the TGI with HCT-15 colon worked out at 25.2 µM; in the assay with NCI-H226 lung it was 31.6 µM; with SF-268 CNS, 30.3 µM; in the assay with MDA-MB-435 it was 22.1 µM; with UACC-257 melanoma, 17.7 µM; in the assay on OVCAR-5 ovarian, 26.3 µM. In addition, the TGI in the assay on OVCAR-4 ovarian is 22.5 µM; with IGROV1 ovarian, 32.7 µM; in the assay with CAKI-1 renal, 49.7 µM; in the assay with SW-620 colon it was 36.8 µM; with EKVX NSCLC, 29.4 µM; in the assay on SK-MEL-5 melanoma it was 20.3 µM. The TGI with T-47D breast is 23.2 µM; in the assay on LOX IMVI melanoma, 30 µM; in the assay with SK-MEL-28 melanoma, 42 µM; in the assay on COLO 205 colon, 28.6 µM.
